Results on 2 molecules are retold here after US12116611B2, “Method of treating intellectual disability, autism and epilepsy associated with an IQSEC2 mutation and for identifying medicaments for treating the same” (TECHNION RESEARCH & DEVELOPMENT FOUNDATION LIMITED, priority 2018, dated 2024).

Test [1] concerns calmodulin-IQSEC2 interaction. Nature of the test: Binding of luciferase-IQSEC2 to calmodulin-sepharose in vitro. More on the design: species or system human. The conditions noted are these: for pEC50: read-out: Free calcium concentration for half-maximal binding of calcium-calmodulin to IQSEC2. How it is done:
The binding of wild type and mutant IQSEC2 to calmodulin was assessed in vitro using calmodulin-sepharose (BioVision, Milipetas, CA). Extracts from stably transfected cells were prepared in either buffer A [50 mM Tris pH 7.5; 150 mM NaCl, 10 mg/ml BSA; 5 mM EGTA and 0.1% Triton X-100] or buffer B [10 mM Tris pH 7.5; 150 mM NaCl, 5 mM EGTA, 5% glycerol, 0.5% Triton X-100]. Extracts were clarified by centrifugation at 14000 rpm at 4° C. to remove insoluble debris and the amount of luciferase activity in the extract assessed using the Promega luciferase assay system and a Turner TD 20/20 luminometer. Extracts (10,000-100,000 luciferase units) were then incubated in buffer A or buffer B with or without CaCl2 in a total volume of 1 cc. The concentration of free calcium in the incubation conditions was calculated using the maxchelator algorithm (maxchelator.stanford.edu) which is based on the ionic strength, pH, temperature and dissociation constant of EGTA for calcium. The concentration of free calcium used in these studies ranged from 0.73 nM to 2 mM. 10 μl of calmodulin-sepharose was added to the incubation and mixed on a rotary apparatus for 3-4 hours. The calmodulin-sepharose was washed twice with binding buffer, resuspended in 100 μl of luciferase reagent lysis buffer and 20 μl was assessed for luciferase activity.
Investigation of this interaction in a cell-free system in vitro using luciferase tagged IQSEC2 and calmodulin coupled to sepharose allowed for the precise control of calcium concentration which is known to dramatically affect the conformation and interactions of calmodulin with other proteins. In this system luciferase activity associated with calmodulin sepharose was used a quantitative readout of the calmodulin-IQSEC2 interaction. The IQ motif is present in over 100 proteins and in some cases preferentially binds to calcium-calmodulin while in other cases it binds preferentially to calcium-free calmodulin (apocalmodulin) (Bahler and Rhoads, 2002). […] However, when the effect of calcium on the IQSEC2 calmodulin interaction was assessed, it was observed that calcium increased the binding of calmodulin to IQSEC2. Upon reviewing the buffers used by the research group in assessing binding of IQSEC2 to calmodulin, it was discovered that the concentration of Triton X-100 used in the binding and wash buffers was differed. […] Triton X-100 binds to most proteins via both hydrophobic and polar interactions [Singh and Kishore, 2006] and may thereby disrupt protein-protein interactions at high concentrations. […] The binding of wild type or A350V luciferase-IQSEC2 to calmodulin was assessed over a wide range of calcium concentrations.

Another test has as its target calmodulin (Homo sapiens, UniProt P0DP23). To be noted: Persechini and Cronk et al, 1999; read-out: Kd of calcium for calmodulin; cited from earlier work.
A further test concerns endogenous Arf6. The experiment in a line: Arf6-GTP GGA3 pulldown assay in transfected HEK293T cells, with or without ionomycin. It counts as cell-based, human. Here is the method:
For the assessment of Arf6-GTP using a GGA-3 pulldown assay and western blot, HEK293T cells were transfected with FLAG-tagged WT, A350V, or R359C IQSEC2 in pCAGGS vector by calcium phosphate. Twenty-four hours after transfection, the cultures were treated with 5 μM ionomycin or ethanol vehicle for 5 mins, then lysed in 50 mM Tris-HCl, pH 7.5, 100 mM NaCl, 2 mM MgCl2, 0.2% SDS, 0.5% sodium deoxycholate, 1% Triton X-100, 10% glycerol, and 1× Halt protease inhibitor cocktail. An Arf6-GTP pull-down assay was carried out as described (Shoubridge et al, 2010). Briefly, lysates were cleared by centrifugation at 10,000 rpm for 10 min and incubated with GGA3:GST on glutathione-sepharose beads for 5 hours at 4° C. The beads were washed and bound proteins were eluted and probed by immunoblot with rabbit anti-Arf6 (1:750, Cell Signaling #5740). Lysates were also probed against total Arf6 and with rabbit anti-FLAG (1:1000; Covance #PRB-132P) to detect expression of FLAG-IQSEC2. Bands were visualized with the use of a LiCor Odyssey imaging system and quantified with Image Studio Lite. Each band was normalized to the untreated sham-transfected control. The data were statistically analyzed by one-way ANOVA followed by Tukey's Multiple Comparison Test for post-hoc analysis.
The activation of Arf6 (Arf6-GTP) by wild type, A350V, or R359C IQSEC2 in a GGA3 pulldown assay was also assessed. HEK 293T cells were transiently transfected with constructs to express either wild type, A350V or R359C IQSEC2, and endogenous Arf6 activation was tested with or without treatment with the calcium ionophore ionomycin. […] Cell lysates were incubated with beads coated with GGA3:GST to isolate the GTP-bound Arfs, and bound Arf6 was assessed by immunoblot (FIG. 4A).

pEC50, pKd: −log10 of the molar value. Several values for one entry are separate records, joined by “and”; a condition that tells them apart may be missing. Identical values can stand only once. Entries after “also recorded” stand apart in the source; their conditions may differ. Like-named read-outs stand apart in the source and are kept apart here.

With `[Ca+2]` [calcium], the “Change in binding of calmodulin to wild type IQSEC2” value in test [1] (100 μM calcium, high (0.5%) Triton X-100) was “several fold decrease; also recorded: significant decrease”; in test [1] (100 uM calcium, low (0.1%) Triton X-100), “several fold increase; also recorded: significant increase”. Also, the pEC50 in test [1] (A350V IQSEC2, 0.1% Triton X-100) was approximately 6.00; in test [1] (wild type IQSEC2, 0.1% Triton X-100), approximately 6.00. In addition, on calmodulin, the pKd is 6.00 and ~6.00.
On to `C[C@H](CCC(=O)O)C[C@H](C)C[C@H](C)C(=O)/C=C(\O)[C@H](C)C[C@H](C)C/C=C/[C@@H](C)[C@@H](O)[C@@H](C)[C@@H](O)C[C@@H]1CC[C@@](C)([C@H]2CC[C@@](C)([C@@H](C)O)O2)O1` [ionomycin], for which, in the test on endogenous Arf6 (HEK293T cells transfected with A350V IQSEC2), the “Effect of ionomycin on Arf6 activation” value is “did not further increase Arf6 activation”. Further, in the test with endogenous Arf6 (HEK293T cells transfected with R359C IQSEC2), the “Effect of ionomycin on Arf6-GTP induction” value is on record as “unresponsive”. Also, the “Arf6 activation (Arf6-GTP) compared to sham transfected cells” value in the test on endogenous Arf6 (HEK293T cells transfected with wild type IQSEC2, 5 μM ionomycin for 5 mins) is reported as 8.03±1.89 fold increase.

One may read the pKd as −log10 of the Kd, conventionally taken in molar units.
